This data set in a line: Pharmacokinetic (PK) assay in mice. It counts as in vivo. Particulars: CD-1 mice; for AUC(0-t) / Cmax / half-life / Vd / bioavailability: mouse, plasma; for Vd: read-out: Vss; for bioavailability: Po 5 mg/kg vs IV 1 mg/kg. How it is done:
The PK of each compound was determined as follows: 6 CD-1 mice (obtained from Shanghai Lingchang Biotechnology Co., Ltd.) were divided into two groups, 3 mice in each group. One group was administered intravenously at a dose of 1 mg/kg, and the vehicle was 5% DMSO/40% PEG400/55% (20% 3-CD); one group was administered by oral gavage at a dose of 5 mg/kg, and the vehicle was DMSO/1% methylcellulose (1:99). Blood samples were collected from saphenous vein of lower leg in each group at 0, 0.083, 0.25, 0.5, 1, 2, 4, 6, 8 and 24 h after administration. Approximately 40 μL of the blood samples were collected into anticoagulant tubes containing EDTA-K2. Immediately after collection, the tubes were inverted at least 5 times to ensure uniform mixing, and then placed on ice. The blood samples collected at each time point were centrifuged at 4° C., 8000 rpm for 5 minutes to obtain plasma. Another 1.5 mL centrifuge tube was marked with the compound name, animal number, and time point, and the plasma was transferred to this tube. The plasma was stored at −80° C. until analysis.
Compound concentrations in plasma were determined by UPLC-MS/MS method, and the pharmacokinetic parameters were calculated by Phoenix WinNolin 6.4 pharmacokinetic software on the obtained data.

Molecules are shown by their SMILES. Read-outs that look alike come from different tables or passages of the source.

Usually AUC(0-t) stands for the area under the concentration-time curve up to a stated or last time point. One may read the Cmax as the peak of the concentration-time curve. Usually half-life stands for the time needed for the level to fall by half in the phase considered. A low value points to rapid decline. By bioavailability is commonly meant the share of a dose that reaches the circulation, judged against a reference dose that is usually intravenous. Higher therefore signals good availability.

As to `COC[C@H](C(=O)Nc1cc(Cl)c(-c2ccc(S(=O)(=O)C3CC3)cc2)c(Cl)c1)c1ccc(S(C)(=O)=O)cc1` (single isomer, unassigned) [Example 35, (S)—N-(2,6-dichloro-4′-(cyclopropylsulfonyl)-[1,1′-biphenyl]-4-yl)-3-methoxy-2-(4-(methylsulfonyl)phenyl)propanamide or (R)—N-(2,6-dichloro-4′-(cyclopropylsulfonyl)-[1,1′-biphenyl]-4-yl)-3-methoxy-2-(4-(methylsulfonyl)phenyl)propanamide], the bioavailability turned out to be 32.8%. The CL_obs (IV 1 mg/kg, values marked **) is reported as 2.40** mL/min/kg. Under “IV 1 mg/kg”, this compound showed an AUC(0-t) of 6880 ng·h/mL, a Cmax of 1340 ng/mL and a half-life of 3.56 h. Under “IV 1 mg/kg, values marked *”, the Vd was 0.83 L/kg. For the same compound, for the setting “Po 5 mg/kg”, the AUC(0-t) was 9140 ng·h/mL, the Cmax was determined as 700 ng/mL and the half-life was 12.3 h.

As for `CC(C)(C[C@H]1CN(S(=O)(=O)c2cccc(C(F)(F)F)c2)c2cc(-c3cc(F)cc(OC(F)F)c3)ccc2O1)C(=O)O` [LYC-55716, reference compound], the bioavailability amounted to 21%. In addition, under “IV 1 mg/kg”, the AUC(0-t) turned out to be 256 ng·h/mL, the Cmax is 353 ng/mL, the half-life is 2.63 h and the Vd was found to be 7.23 L/kg. Under “Po 5 mg/kg”, the AUC(0-t) was 269 ng·h/mL, the Cmax turned out to be 52.6 ng/mL and the half-life is 5.35 h.

Values taken from patent US20220402867A1, “SULFO-SUBSTITUTED BIARYL COMPOUND OR SALT THEREOF, PREPARATION METHOD THEREFOR, AND USE THEREOF” (Shanghai Litedd Co., Ltd., priority 2019, published 2022).
